According to publication PMC9406419, “OATD-02 Validates the Benefits of Pharmacological Inhibition of Arginase 1 and 2 in Cancer” (Cancers, 2022):
Read-outs that look alike come from different tables or passages of the source.

Experiments:
[1] = tested on: intracellular arginase in murine M2-polarized BMDMs; test: Cell-based arginase inhibition assay in murine M2-polarized bone marrow-derived macrophages (urea in supernatant); parameters: species or system mouse; conditions: 24 h incubation, 5 mM L-arginine, read-out: IC50, intracellular activity towards arginase-expressing immune cells
Method: The intracellular activity of OATD-02 arginase inhibitor was determined using murine M2-polarized macrophages. Bone marrow cells were collected from femur bones of C57BL/6 male mice. The cells suspended in DMEM medium (ThermoFisher, Waltham, MA, USA) supplemented with 5% FBS and 50 ng/mL M-CSF (PeproTech, Rocky Hill, NJ, USA) were poured through a 40 µm cell strainer and seeded into Petri dishes at 1 × 10^6 cells/mL for 2 days (37 °C, 5% CO2). Next, nonadherent cells were removed and fresh medium was added (DMEM, 5% FCS, 50 ng/mL M-CSF). The next day, the cells were dissociated using the CellStripper Dissociation Reagent (Corning, New York, NY, USA) and resuspended in the fresh DMEM medium containing 5% FCS, 50 ng/mL M-CSF, 20 ng/mL TGF-ß, and 30 ng/mL IL-4 (Biomibo, Warszawa, Poland). The cells were seeded into 96-well plates (64 × 10^3 cells/100 µL/well). […] Following 24 h incubation (37 °C, 5% CO2), the generated urea was detected by mixing 50 µL of the supernatant with 75 µL of the developing reagent (as described in the above section). Normalized absorbance values (515 nm) were fitted to a four-parameter equation using GraphPad Prism and IC50 values were determined. […] Normalized absorbance values (515 nm) were fitted to a four-parameter equation using GraphPad Prism and IC50 values were determined. […]

K562 tumours = test: K562 xenograft model in athymic nude mice; type: in vivo, mouse
Method: CT26 and K562 in vivo experiments were conducted at Molecure SA. All experimental procedures were approved by the 1st Local Ethics Committee in Warsaw (Poland). For the syngeneic CT26 model, 7–8-week old BALB/c females (n = 9–18 per group, BALB/cAnNCrl, Charles River Laboratories) were injected subcutaneously in the right flank with 5 × 10^5 CT26 cells. […] Anti-PD-L1 antibody (InVivoPlus anti-mouse PD-L1, clone 10F.9G2, BioXCell, lot 615416D1) was injected intraperitoneally at 2.5 mg/kg on days: 8, 10, 12, 14 and 16 post tumour cells inoculation. Control groups received vehicle (saline) or isotype antibody (InVivoPlus rat IgG2b, anti-KLH, BioXCell, lot 629816D1). For the xenograft K562 model, 7–8 week-old athymic nude mice (n = 8–11 per group, Crl:NU(NCr)-Foxn1^nu, Charles River Laboratories) or NK cell-deficient Fox Chase SCID Beige mice (n = 10–12 per group, CB17.Cg-Prkdc^scidLyst^bg-J/Crl, Charles River Laboratories) were injected subcutaneously in the right flank with 1 × 10^7 K562 cells. […] Tumour volume measured by a digital calliper (width × length × depth × π/6) was recorded three times per week. Animals were euthanized when tumours were necrotized or volume exceeded 2000 mm^3. Renca in vivo efficacy study was performed at Crown Biosciences Inc. (Taicang, China). […] Tumour volumes (length × width^2 × 0.5) were measured twice per week. […]

SMILES | IC50 [1] [µM] | final TGI, K562 tumor volumes, athymic nude mice (K562 tumours; 50 mg/kg PO BID from day 6, day 19 post-inoculation) [%] | IC50 ([1]; Mus musculus, BMDM) [µM] | final TGI, K562 tumor volumes, athymic nude mice (K562 tumours; 100 mg/kg PO BID (Figure 5 legend) from day 6, day 19 post-inoculation) [%]
CN(C)C[C@@H]1CC[C@@H](CCB(O)O)C[C@]1(N)C(=O)O [OATD-02] | 1.1 | 49 | – | –
C[C@H](N)C(=O)N1C[C@H](CCCB(O)O)[C@](N)(C(=O)O)C1 [ref. ARGi, numidargistat, reference compound] | – | – | 56.2 | 14
